Source: patent US4001218A, “Penicillins” (Bayer Aktiengesellschaft, priority 1972, dated 1977)

Key:
[1] = test system: Staph. aureus 133; format: cell-based, Staphylococcus aureus; settings: for MIC: Staph. aureus 133, 24 hours, 37°C
[2] = test system: E. coli A 261; test: MIC, test tube series dilution test, E. coli A 261; format: cell-based; settings: 24 hours, 37°C
[3] = test system: Proteus morg. 932; test: MIC, test tube series dilution test, Proteus morg. 932; format: cell-based; settings: 24 hours, 37°C
[4] = test system: E. coli 14; format: cell-based; settings: for MIC: E. coli 14, 24 hours, 37°C
[5] = test system: Enterococcus 9790; test: MIC, test tube series dilution test, Enterococcus 9790; format: cell-based; settings: 24 hours, 37°C
[6] = test system: Proteus vulg. 1017; format: cell-based, Proteus vulgaris; settings: for MIC: Proteus 1017, 24 hours, 37°C
[7] = test system: Psdm. aerug. F 41; test: MIC, test tube series dilution test, Psdm. aerug. F 41; format: cell-based, Pseudomonas aeruginosa
[8] = test system: Klebsiella 63; test: MIC, test tube series dilution test, Klebsiella 63; format: cell-based; settings: 24 hours' incubation

Compound | MIC [1] [U/ml] | MIC [2] [U/ml] | other results
CC1(C)S[C@@H]2[C@H](NC(=O)[C@H](NC(=O)c3ccc(NC(=O)CC4CC5CCC4C5)cc3)c3ccccc3)C(=O)N2[C@H]1C(=O)O (single isomer, unassigned) [Example 15, sodium D(-)-α-[4-(2-norbornylacetamido-benzoylamino)]-benzylpenicillin] | < 1 | > 256 | 
CC1(C)S[C@@H]2[C@H](NC(=O)[C@H](NC(=O)c3ccc(NC(=O)C4CC4)cc3[N+](=O)[O-])c3ccccc3)C(=O)N2[C@H]1C(=O)O [Example 3, sodium D(-)-α-(4-cyclopropanecarbonylamino-2-nitrobenzoylamino)-benzylpenicillin] |  | > 256 | 
CC1(C)S[C@@H]2[C@H](NC(=O)[C@H](NC(=O)c3ccc(NC(=O)C4CC4)c([N+](=O)[O-])c3)c3ccccc3)C(=O)N2[C@H]1C(=O)O [Example 4, sodium D(-)-α-(4-cyclopropanecarbonylamino-3-nitro-benzoylamino)-benzylpenicillin] | < 1 | > 256 | MIC [3]: > 256 U/ml
CC1(C)S[C@@H]2[C@H](NC(=O)[C@H](NC(=O)c3ccc(NC(=O)C4CCC4)cc3[N+](=O)[O-])c3ccccc3)C(=O)N2[C@H]1C(=O)O [Example 6, sodium D(-)-α-(4-cyclobutanecarbonylamino-2-nitro-benzoylamino)-benzylpenicillin] | < 1 | > 256 | 
CC1(C)S[C@@H]2[C@H](NC(=O)[C@H](NC(=O)c3ccc(NC(=O)CCC4CCCC4)cc3)c3ccccc3)C(=O)N2[C@H]1C(=O)O [Example 9, sodium D(-)-α-(4-[3-cyclopentylpropionylaminobenzoylamino)]-benzylpenicillin] | < 1 | > 256 | 
CC1(C)S[C@@H]2[C@H](NC(=O)[C@H](NC(=O)c3ccc(NC(=O)CCC4CCCCC4)cc3)c3ccccc3)C(=O)N2[C@H]1C(=O)O [Example 10, sodium D(-)-α-[4-(3-cyclohexanepropionylamino-benzoylamino)]-benzylpenicillin] | < 1 | > 256 | MIC [4]: < 1 U/ml; MIC [5]: ~ 16 U/ml
CC1(C)S[C@@H]2[C@H](NC(=O)[C@H](NC(=O)c3ccc(NC(=O)C4CCCCCC4)cc3)c3ccccc3)C(=O)N2[C@H]1C(=O)O [Example 13, sodium D(-)-α-(4-cycloheptanecarbonylamino-benzoylamino)-benzylpenicillin] | < 1 |  | MIC [4]: < 1 U/ml
CC1(C)S[C@@H]2[C@H](NC(=O)[C@H](NC(=O)c3ccc(NC(=O)c4cc([N+](=O)[O-])cc([N+](=O)[O-])c4)cc3)c3ccccc3)C(=O)N2[C@H]1C(=O)O [Example 19] | < 1 | > 256 | MIC [6]: ~ 16 U/ml; MIC [4]: < 1 U/ml
CC1(C)S[C@@H]2[C@H](NC(=O)[C@H](NC(=O)c3ccc(NC(=O)c4ccc5c(c4)OCO5)cc3)c3ccccc3)C(=O)N2[C@H]1C(=O)O [Example 24] | < 1 | > 256 | 
CC1(C)S[C@@H]2[C@H](NC(=O)[C@H](NC(=O)c3ccc(NC(=O)c4ccc([N+](=O)[O-])cc4)cc3[N+](=O)[O-])c3ccccc3)C(=O)N2[C@H]1C(=O)O [Example 27, sodium D(-)-α-[4-(4-nitrobenzoylamino)-2-nitrobenzoylamino]-benzylpenicillin] | < 1 | > 256 | 
Cc1cc(C(=O)N[C@@H](C(=O)N[C@@H]2C(=O)N3[C@@H]2SC(C)(C)[C@@H]3C(=O)O)c2ccccc2)ccc1[N+](=O)[O-] [Example 31, sodium D(-)-α-(4-nitro-3-methylbenzoylamino)-benzylpenicillin] | < 1 | > 256 | 
Cc1cc(C(=O)N[C@@H](C(=O)N[C@@H]2C(=O)N3[C@@H]2SC(C)(C)[C@@H]3C(=O)O)c2ccccc2)ccc1N [Example 32, sodium D(-)-α-(4-amino-3-methyl-benzoylamino)-benzyl-penicillin] | < 1 | > 256 | 
CC(CC(=O)Nc1ccc(C(=O)N[C@@H](C(=O)N[C@@H]2C(=O)N3[C@@H]2SC(C)(C)[C@@H]3C(=O)O)c2ccccc2)cc1)N=[N+]=[N-] (stereo partly drawn) [Example 40] | < 1 | > 256 | 
CC1(C)S[C@@H]2[C@H](NC(=O)[C@H](NC(=O)c3ccc(NC(=O)c4cccs4)cc3)c3ccccc3)C(=O)N2[C@H]1C(=O)O [Example 48] | < 1 |  | 
CC1(C)S[C@@H]2[C@H](NC(=O)[C@H](NC(=O)c3cccc(NC(=O)C4CC4)c3)c3ccccc3)C(=O)N2[C@H]1C(=O)O [Example 51] | < 1 | > 256 | MIC [4]: ~ 16 U/ml; MIC [3]: > 256 U/ml
CC1(C)S[C@@H]2[C@H](NC(=O)[C@H](NC(=O)C=Cc3ccc([N+](=O)[O-])cc3)c3ccccc3)C(=O)N2[C@H]1C(=O)O [Example 54] | < 1 | > 256 | 

Compound | MIC [1] [U/ml] | MIC [2] [U/ml] | other results
CC1(C)S[C@@H]2[C@H](NC(=O)[C@H](NC(=O)C=Cc3ccc(NC=O)cc3)c3ccccc3)C(=O)N2[C@H]1C(=O)O [Example 55] | < 1 |  | MIC [6]: > 256 U/ml
CC1(C)S[C@@H]2[C@H](NC(=O)[C@H](NC(=O)C=Cc3ccc(NC(=O)C4CC4)cc3)c3ccccc3)C(=O)N2[C@H]1C(=O)O [Example 56] | < 1 | > 256 | 
CC1(C)S[C@@H]2[C@H](NC(=O)[C@H](NC(=O)C=Cc3ccc(NC(=O)C4CCC4)cc3)c3ccccc3)C(=O)N2[C@H]1C(=O)O [Example 57] | < 1 | > 256 | MIC [4]: ~ 1 U/ml
COc1cc(C(=O)Nc2ccc(SCC(=O)N[C@@H](C(=O)N[C@@H]3C(=O)N4[C@@H]3SC(C)(C)[C@@H]4C(=O)O)c3ccccc3)cc2)cc(OC)c1OC [Example 58] | < 1 |  | MIC [6]: > 256 U/ml; MIC [4]: ~ 16 U/ml
CC1(C)S[C@@H]2[C@H](NC(=O)[C@H](NC(=O)CSc3ccc(NC(=O)C4CC4)cc3)c3ccccc3)C(=O)N2[C@H]1C(=O)O [Example 60] |  | > 256 | MIC [6]: ~ 4 U/ml; MIC ([7]; Psdm. aerug. F 41, 24 hours, 37°C): ~ 256 U/ml
CC1(C)S[C@@H]2[C@H](NC(=O)[C@H](NC(=O)CSc3ccc(NC(=O)CC4C=CCC4)cc3)c3ccccc3)C(=O)N2[C@H]1C(=O)O (stereo partly drawn) [Example 62] |  | > 256 | 
CC1(C)S[C@@H]2[C@H](NC(=O)[C@H](NC(=O)CNC(=O)c3ccc(NC=O)cc3)c3ccccc3)C(=O)N2[C@H]1C(=O)O [Example 63] | < 1 | > 256 | MIC [4]: ~ 1 U/ml; MIC [5]: ~ 4 U/ml; MIC [3]: > 256 U/ml
CC1(C)S[C@@H]2[C@H](NC(=O)[C@H](NC(=O)CNC(=O)c3ccc(NC(=O)C4CCC4)cc3)c3ccccc3)C(=O)N2[C@H]1C(=O)O [Example 65] | < 1 | > 256 | MIC [3]: > 256 U/ml
CC1(C)S[C@@H]2[C@H](NC(=O)[C@H](NC(=O)CNC(=O)c3ccc(NC(=O)C4=CCCCC4)cc3)c3ccccc3)C(=O)N2[C@H]1C(=O)O [Example 67] | < 1 |  | MIC [6]: > 256 U/ml
CC1(C)S[C@@H]2[C@H](NC(=O)[C@H](NC(=O)CNC(=O)c3ccc(N=[N+]=[N-])cc3)c3ccccc3)C(=O)N2[C@H]1C(=O)O [Example 68] | < 1 | > 256 | 
CC1(C)S[C@@H]2[C@H](NC(=O)[C@H](NC(=O)CNC(=O)c3ccc([N+](=O)[O-])cc3)c3ccccc3)C(=O)N2[C@H]1C(=O)O [Example 69] | < 1 | > 256 | 
CC1(C)S[C@@H]2[C@H](NC(=O)[C@H](NC(=O)c3cc(NC=O)cc(NC=O)c3)c3ccccc3)C(=O)N2[C@H]1C(=O)O [Example 71] | < 1 | > 256 | MIC [4]: ~ 4 U/ml; MIC [3]: > 256 U/ml
CC1(C)S[C@@H]2[C@H](NC(=O)[C@H](NC(=O)c3cc(NC(=O)C4CC4)cc(NC(=O)C4CC4)c3)c3ccccc3)C(=O)N2[C@H]1C(=O)O [Example 72] | < 1 | > 256 | MIC [5]: ~ 16 U/ml; MIC [3]: > 256 U/ml
CC1(C)S[C@@H]2[C@H](NC(=O)[C@H](NC(=O)c3cc(NC(=O)C4CCC4)cc(NC(=O)C4CCC4)c3)c3ccccc3)C(=O)N2[C@H]1C(=O)O [Example 73] | < 1 | > 256 | 
CC1(C)S[C@@H]2[C@H](NC(=O)[C@H](NC(=O)c3ccc(NC(=O)C4CC4)c(NC(=O)C4CC4)c3)c3ccccc3)C(=O)N2[C@H]1C(=O)O [Example 75] | < 1 | > 256 | MIC [5]: ~ 16 U/ml; MIC [3]: > 256 U/ml
COc1cc(C(=O)Nc2ccc(C=CC(=O)N[C@@H](C(=O)N[C@@H]3C(=O)N4[C@@H]3SC(C)(C)[C@@H]4C(=O)O)c3ccccc3)cc2)cc(OC)c1OC [Example 79, sodium D(-)-α-[4-(3,4,5-trimethoxybenzoylamino-cinnamoylamino)]-benzylpenicillin] |  |  | Activity against Proteus vulg. 1017 (minimum inhibitory concentration) ([6]; 24 hours' incubation): 128-256 U/ml; Activity against E. coli 14 (minimum inhibitory concentration) ([4]; 24 hours' incubation): 1-2 U/ml; Activity against Psdm. aerug. F 41 (minimum inhibitory concentration) ([7]; 24 hours' incubation): 8-16 U/ml; Activity against Klebs. 63 (minimum inhibitory concentration) [8]: 32-64 U/ml; Activity against Staph. aureus 133 (minimum inhibitory concentration) ([1]; 24 hours' incubation): < 1 U/ml
